# In patent publication US9562031B1, “Phenethyldihydrobenzodioxolones and methods of use” (Sequoia Sciences, Inc., priority 2015, dated 2017):
# Read-outs that look alike come from different tables or passages of the source.
# Legend:
# [1] = test system: M14 (amelanotic melanoma) cells; experiment: antiproliferation assay (72 h, CELLTITER 96), M14; type: cell-based, human; settings: Homo sapiens
# Procedure: (§1) All of the compounds shown in Table 3-Table 8 below were prepared synthetically as described in EXAMPLE I. The compounds were tested for their ability to inhibit the proliferation of human cancer cells in vitro as described in the following paragraph. Table 3-Table 8 list the IC50 values in the M14 and NCI-H460 human cancer cell lines. IC50 is defined as the concentration of compound necessary to achieve 50% of the maximum growth inhibition.
# (§2) For the antiproliferation assay, NCI-H460 (large cell lung carcinoma) or M14 (amelanotic melanoma) cells were grown in RPMI-1640 with 10% FBS supplemented with L-glutamine and HEPES. Cells were seeded into 96-well plates at 5×10^2 to 5×10^4 cells/well and allowed to adhere overnight; the medium was then removed. A stock solution of test compound in DMSO was diluted in medium to generate a series of working solutions. Aliquots (100 μl) of the working solutions were then added to the appropriate test wells to expose cells to the final concentrations of compound in a total volume of 100 μl. Seven different concentrations were tested, with 2-5 wells per concentration. Camptothecin was used as a positive control; wells containing vehicle without compound were used as negative controls. Plates were kept for 72 h in a 37° C., 5% CO2 incubator. After incubation, viable cells were detected with the CELLTITER 96 AQueous Non-Radioactive Cell Proliferation Assay (Promega), and IC50 values were determined using GraphPad Prism 5 software.
# [2] = test system: NCI-H460 (large cell lung carcinoma) cells; experiment: antiproliferation assay (72 h, CELLTITER 96), NCI-H460; type: cell-based, human; settings: Homo sapiens, read-out: NCI-H460 IC50
# Procedure: as §1, §2
structure (smiles),measurement,setting,value
"C=CC[C@H]1C[C@]2([C@H](C)Cc3ccc(OC)c(F)c3F)OCOC2=CC1=O [Compound 22, (6S,7aR)-6-allyl-7a-((R)-1-(2,3-difluoro-4-methoxyphenyl)propan-2-yl)-7,7a-dihydrobenzo[d][1,3]dioxol-5(6H)-one]",IC50,[1]; Table 3,900 nM
same,IC50,"[2]; NCI-H460, Table 3",2400 nM
"C=CC[C@H]1C[C@]2([C@H](C)Cc3c(F)cc(OC)cc3F)OCOC2=CC1=O [Compound 23, (6S,7aR)-6-allyl-7a-((R)-1-(2,6-difluoro-4-methoxyphenyl)propan-2-yl)-7,7a-dihydrobenzo[d][1,3]dioxol-5(6H)-one]",IC50,[1]; Table 3,270 nM
same,IC50,"[2]; NCI-H460, Table 3",720 nM
"C=CC[C@H]1C[C@]2([C@H](C)Cc3ccc(OC)c(OC)c3)OCOC2=CC1=O [Compound 24, (6S,7aR)-6-allyl-7a-((R)-1-(3,4-dimethoxyphenyl)propan-2-yl)-7,7a-dihydrobenzo[d][1,3]dioxol-5(6H)-one]",IC50,[1]; Table 4,110 nM
same,IC50,"[2]; NCI-H460, Table 4",320 nM
"C=CC[C@H]1C[C@]2([C@@H](C)Cc3ccc(OC)cc3)OCOC2=CC1=O [Compound 25, (6S,7aR)-6-allyl-7a-((S)-1-(4-methoxyphenyl)propan-2-yl)-7,7a-dihydrobenzo[d][1,3]dioxol-5(6H)-one]",IC50,[1]; Table 4,61 nM
same,IC50,"[2]; NCI-H460, Table 4",88 nM
"C=CC[C@H]1C[C@]2([C@@H](C)Cc3ccc(OC)c(C)c3)OCOC2=CC1=O [Compound 27, (6S,7aR)-6-allyl-7a-((S)-1-(4-methoxy-3-methylphenyl)propan-2-yl)-7,7a-dihydrobenzo[d][1,3]dioxol-5(6H)-one]",IC50,[1]; Table 4,410 nM
same,IC50,"[2]; NCI-H460, Table 4",630 nM
"C=CC[C@H]1C[C@]2([C@H](C)Cc3ccc(OC)c(CO)c3)OCOC2=CC1=O [Compound 28, (6S,7aR)-6-allyl-7a-((R)-1-(3-(hydroxymethyl)-4-methoxyphenyl)propan-2-yl)-7,7a-dihydrobenzo[d][1,3]dioxol-5(6H)-one]",IC50,[1]; Table 4,10000 nM
same,IC50,"[2]; NCI-H460, Table 4",4200 nM
"C=CC[C@H]1C[C@]2([C@@H](C)Cc3ccc(OC)c(C(=O)NC)c3)OCOC2=CC1=O [Compound 30, 5-((S)-2-((3aR,5S)-5-allyl-6-oxo-3a,4,5,6-tetrahydrobenzo[d][1,3]dioxol-3a-yl)propyl)-2-methoxy-N-methylbenzamide]",IC50,[1]; Table 4,1400 nM
same,IC50,"[2]; NCI-H460, Table 4",1100 nM
"C=CC[C@H]1C[C@]2([C@@H](C)Cc3ccc(OC)c(C#N)c3)OCOC2=CC1=O [Compound 31, 5-((S)-2-((3aR,5S)-5-allyl-6-oxo-3a,4,5,6-tetrahydrobenzo[d][1,3]dioxol-3a-yl)propyl)-2-methoxybenzonitrile]",IC50,[1]; Table 4,180 nM
same,IC50,"[2]; NCI-H460, Table 4",340 nM
"C=CC[C@H]1C[C@]2(C(C)Cc3ccc(OC)c(OC(C)=O)c3)OCOC2=CC1=O (stereo partly drawn) [Compound 33, 5-(2-((3aR,5S)-5-allyl-6-oxo-3a,4,5,6-tetrahydrobenzo[d][1,3]dioxol-3a-yl)propyl)-2-methoxyphenyl acetate]",IC50,[1]; Table 4,16 nM
same,IC50,"[2]; NCI-H460, Table 4",110 nM
"C=CC[C@H]1C[C@]2(C(C)Cc3ccc(OC)c(N)c3)OCOC2=CC1=O (stereo partly drawn) [Compound 34, (6S,7aR)-6-allyl-7a-(1-(3-amino-4-methoxyphenyl)propan-2-yl)-7,7a-dihydrobenzo[d][1,3]dioxol-5(6H)-one]",IC50,[1]; Table 4,49 nM
same,IC50,"[2]; NCI-H460, Table 4",180 nM
"C=CC[C@H]1C[C@]2([C@@H](C)Cc3ccc(OC)c(NC(C)=O)c3)OCOC2=CC1=O [Compound 35, N-(5-((S)-2-((3aR,5S)-5-allyl-6-oxo-3a,4,5,6-tetrahydrobenzo[d][1,3]dioxol-3a-yl)propyl)-2-methoxyphenyl)acetamide]",IC50,[1]; Table 4,85 nM
same,IC50,"[2]; NCI-H460, Table 4",310 nM
"C=CCNc1cc(CC(C)[C@]23C[C@H](CC=C)C(=O)C=C2OCO3)ccc1OC (stereo partly drawn) [Compound 36, (6S,7aR)-6-allyl-7a-(1-(3-(allylamino)-4-methoxyphenyl)propan-2-yl)-7,7a-dihydrobenzo[d][1,3]dioxol-5(6H)-one]",IC50,[1]; Table 4,720 nM
same,IC50,"[2]; NCI-H460, Table 4",1900 nM
"C=CC[C@H]1C[C@]2([C@@H](C)Cc3ccc(OC)c(Cl)c3)OCOC2=CC1=O [Compound 38, (6S,7aR)-6-allyl-7a-((S)-1-(3-chloro-4-methoxyphenyl)propan-2-yl)-7,7a-dihydrobenzo[d][1,3]dioxol-5(6H)-one]",IC50,[1]; Table 4,240 nM
same,IC50,"[2]; NCI-H460, Table 4",640 nM
"C=CC[C@H]1C[C@]2([C@H](C)Cc3ccc(OC)c(Cl)c3)OCOC2=CC1=O [Compound 39, (6S,7aR)-6-allyl-7a-((R)-1-(3-chloro-4-methoxyphenyl)propan-2-yl)-7,7a-dihydrobenzo[d][1,3]dioxol-5(6H)-one]",IC50,[1]; Table 4,130 nM
same,IC50,"[2]; NCI-H460, Table 4",420 nM
"C=CC[C@H]1C[C@]2(C(C)Cc3ccc(OCC)cc3)OCOC2=CC1=O (stereo partly drawn) [Compound 40, (6S,7aR)-6-allyl-7a-(1-(4-ethoxyphenyl)propan-2-yl)-7,7a-dihydrobenzo[d][1,3]dioxol-5(6H)-one]",IC50,[1]; Table 5,650 nM
same,IC50,"[2]; NCI-H460, Table 5",2000 nM
"C=CC[C@H]1C[C@]2([C@@H](C)Cc3ccc(OC(F)(F)F)cc3)OCOC2=CC1=O [Compound 41, (6S,7aR)-6-allyl-7a-((S)-1-(4-(trifluoromethoxy)phenyl)propan-2-yl)-7,7a-dihydrobenzo[d][1,3]dioxol-5(6H)-one]",IC50,[1]; Table 5,> 20000 nM
same,IC50,"[2]; NCI-H460, Table 5",3800 nM
"C=CC[C@H]1C[C@]2([C@@H](C)Cc3ccc(N)c(F)c3)OCOC2=CC1=O [Compound 42, (6S,7aR)-6-allyl-7a-((S)-1-(4-amino-3-fluorophenyl)propan-2-yl)-7,7a-dihydrobenzo[d][1,3]dioxol-5(6H)-one]",IC50,[1]; Table 5,810 nM
same,IC50,"[2]; NCI-H460, Table 5",2500 nM
"C=CC[C@H]1C[C@]2([C@H](C)Cc3ccc(NC)c(F)c3)OCOC2=CC1=O [Compound 43, (6S,7aR)-6-allyl-7a-((R)-1-(3-fluoro-4-(methylamino)phenyl)propan-2-yl)-7,7a-dihydrobenzo[d][1,3]dioxol-5(6H)-one]",IC50,[1]; Table 5,64 nM
same,IC50,"[2]; NCI-H460, Table 5",300 nM
"C=CC[C@H]1C[C@]2([C@H](C)Cc3ccc(N(C)C)c(F)c3)OCOC2=CC1=O [Compound 46, (6S,7aR)-6-allyl-7a-((R)-1-(4-(dimethylamino)-3-fluorophenyl)propan-2-yl)-7,7a-dihydrobenzo[d][1,3]dioxol-5(6H)-one]",IC50,[1]; Table 5,640 nM
same,IC50,"[2]; NCI-H460, Table 5",1400 nM
"C=CC[C@H]1C[C@]2([C@H](C)Cc3cc(F)c(N(C)C)cc3F)OCOC2=CC1=O [Compound 47, (6S,7aR)-6-allyl-7a-((R)-1-(4-(dimethylamino)-2,5-difluorophenyl)propan-2-yl)-7,7a-dihydrobenzo[d][1,3]dioxol-5(6H)-one]",IC50,[1]; Table 5,75 nM
same,IC50,"[2]; NCI-H460, Table 5",330 nM
"C=CC[C@H]1C[C@]2([C@@H](C)Cc3cc(F)c(N(C)C)cc3F)OCOC2=CC1=O [Compound 48, (6S,7aR)-6-allyl-7a-((S)-1-(4-(dimethylamino)-2,5-difluorophenyl)propan-2-yl)-7,7a-dihydrobenzo[d][1,3]dioxol-5(6H)-one]",IC50,[1]; Table 5,70 nM
same,IC50,"[2]; NCI-H460, Table 5",330 nM
C=CC[C@H]1C[C@]2([C@@H](C)Cc3ccccc3)OCOC2=CC1=O [Compound 49],IC50,[1]; Table 6,5100 nM
same,IC50,"[2]; NCI-H460, Table 6",9700 nM
"C=CC[C@H]1C[C@]2([C@@H](C)Cc3cccc(OC)c3)OCOC2=CC1=O [Compound 50, (6S,7aR)-6-allyl-7a-((S)-1-(3-methoxyphenyl)propan-2-yl)-7,7a-dihydrobenzo[d][1,3]dioxol-5(6H)-one]",IC50,[1]; Table 6,8800 nM
same,IC50,"[2]; NCI-H460, Table 6",10600 nM
"C=CC[C@H]1C[C@]2([C@H](C)Cc3ccc(OC)cc3C)OCOC2=CC1=O [Compound 51, (6S,7aR)-6-allyl-7a-((R)-1-(4-methoxy-2-methylphenyl)propan-2-yl)-7,7a-dihydrobenzo[d][1,3]dioxol-5(6H)-one]",IC50,[1]; Table 6,280 nM
same,IC50,"[2]; NCI-H460, Table 6",780 nM
"C=CC[C@H]1C[C@]2(C(C)Cc3ccc(OC)cc3OC)OCOC2=CC1=O (stereo partly drawn) [Compound 52, (6S,7aR)-6-allyl-7a-(1-(2,4-dimethoxyphenyl)propan-2-yl)-7,7a-dihydrobenzo[d][1,3]dioxol-5(6H)-one]",IC50,[1]; Table 6,15000 nM
same,IC50,"[2]; NCI-H460, Table 6",15000 nM
"C=CC[C@H]1C[C@]2([C@@H](C)Cc3ccc(OC)cc3OC(C)=O)OCOC2=CC1=O [Compound 53, 2-((S)-2-((3aR,5S)-5-allyl-6-oxo-3a,4,5,6-tetrahydrobenzo[d][1,3]dioxol-3a-yl)propyl)-5-methoxyphenyl acetate]",IC50,[1]; Table 6,270 nM
same,IC50,"[2]; NCI-H460, Table 6",2300 nM
"C=CC[C@H]1C[C@]2([C@H](C)Cc3ccc(OC)cc3Cl)OCOC2=CC1=O [Compound 54, (6S,7aR)-6-allyl-7a-((R)-1-(2-chloro-4-methoxyphenyl)propan-2-yl)-7,7a-dihydrobenzo[d][1,3]dioxol-5(6H)-one]",IC50,[1]; Table 6,45 nM
same,IC50,"[2]; NCI-H460, Table 6",320 nM
"C=CC[C@H]1C[C@]2(C(C)Cc3cc(F)c(OC)c(F)c3)OCOC2=CC1=O (stereo partly drawn) [Compound 55, (6S,7aR)-6-allyl-7a-(1-(3,5-difluoro-4-methoxyphenyl)propan-2-yl)-7,7a-dihydrobenzo[d][1,3]dioxol-5(6H)-one]",IC50,[1]; Table 6,3300 nM
same,IC50,"[2]; NCI-H460, Table 6",3800 nM
